From patent US20230150953A1, “SUBSTITUTED ISOPHTHALIC ACID DIAMIDES” (Bayer Aktiengesellschaft, priority 2020, published 2023)

What was measured:
Format in all cases: in vivo
[1] = system: ECHCG Echinochloa crus-galli; test: Post-emergence herbicidal action against harmful plants; details: 20 g/ha, one-leaf stage, assessed visually after about 3 weeks vs untreated controls
From the text: (§1) The abbreviations used for the harmful plants mean: • ABUTH Abutilon theophrasti ALOMY Alopecurus myosuroides • AVEFA Avena fatua AMARE Amaranthus retroflexus • CYPES Cyperus esculentus DIGSA Digitaria sanguinalis • ECHCG Echinochloa crus-galli HORMU Hordeum murinum • LOLMU Lolium multiflorum LOLRI Lolium rigidum • MATIN Matricaria inodora PHBPU Pharbitis purpurea • POLCO Polygonum convolvulus SETVI Setaria viridis • STEME Stellaria media VERPE Veronica persica • VIOTR Viola tricolor 2. Post-Emergence Herbicidal Action Against Harmful Plants Seeds of monocotyledonous and dicotyledonous weed and crop plants are laid out in sandy loam soil in wood-fiber pots, covered with soil and cultivated in a greenhouse under good growth conditions. 2 to 3 weeks after sowing, the test plants are treated at the one-leaf stage. The compounds of the invention, formulated in the form of wettable powders (WP) or as emulsion concentrates (EC), are then sprayed onto the green parts of the plants in the form of an aqueous suspension or emulsion at a water application rate equivalent to 600 to 800 l/ha, with addition of 0.2% wetting agent. After the test plants have been left to stand in the greenhouse under optimal growth conditions for about 3 weeks, the action of the preparations is assessed visually in comparison to untreated controls (herbicidal action in percent (%): 100% activity=the plants have died, 0% activity=like control plants). […] The tables below illustrate, in an illustrative manner, the post-emergence herbicidal action of the compounds of the invention, the herbicidal activity being stated in percent.

PHBPU Pharbitis purpurea = test: as above; details: 20 g/ha, one-leaf stage, assessed visually after about 3 weeks vs untreated controls
From the text: as §1

SETVI Setaria viridis [2] = test: as above; details: one-leaf stage, assessed visually after about 3 weeks vs untreated controls
From the text: as §1

[3] = system: AMARE Amaranthus retroflexus; test: as above; details: one-leaf stage, assessed visually after about 3 weeks vs untreated controls
From the text: as §1

MATIN Matricaria inodora [4] = test: Pre-emergence herbicidal action against harmful plants; details: scored visually after 3 weeks vs untreated controls
From the text: (§2) The abbreviations used for the harmful plants mean: • ABUTH Abutilon theophrasti ALOMY Alopecurus myosuroides • AVEFA Avena fatua AMARE Amaranthus retroflexus • CYPES Cyperus esculentus DIGSA Digitaria sanguinalis • ECHCG Echinochloa crus-galli HORMU Hordeum murinum • LOLMU Lolium multiflorum LOLRI Lolium rigidum • MATIN Matricaria inodora PHBPU Pharbitis purpurea • POLCO Polygonum convolvulus SETVI Setaria viridis • STEME Stellaria media VERPE Veronica persica • VIOTR Viola tricolor 1. Pre-Emergence Herbicidal Action Against Harmful Plants Seeds of monocotyledonous and dicotyledonous weed plants and crop plants are laid out in sandy loam soil in wood-fiber pots and covered with soil. The compounds of the invention, formulated in the form of wettable powders (WP) or as emulsion concentrates (EC), are then applied to the surface of the covering soil in the form of an aqueous suspension or emulsion at a water application rate equivalent to 600 to 800 l/ha, with addition of 0.2% wetting agent. After the treatment, the pots are placed in a greenhouse and kept under good growth conditions for the trial plants. The damage to the test plants is scored visually after a test period of 3 weeks by comparison with untreated controls (herbicidal activity in percent (%): 100% activity=the plants have died, 0% activity=like control plants). […] The tables below illustrate, in an illustrative manner, the post-emergence herbicidal action of the compounds of the invention, the herbicidal activity being stated in percent.

[5] = system: ABUTH Abutilon theophrasti; test: as above; details: scored visually after 3 weeks vs untreated controls
From the text: as §2

[6] = system: DIGSA Digitaria sanguinalis; test: as above; details: scored visually after 3 weeks vs untreated controls
From the text: as §2

SETVI Setaria viridis [7] = test: as above; details: scored visually after 3 weeks vs untreated controls
From the text: as §2

[8] = system: ALOMY Alopecurus myosuroides; test: as above; details: 80 g/ha, scored visually after 3 weeks vs untreated controls
From the text: as §2

[9] = system: AMARE Amaranthus retroflexus; test: as above; details: scored visually after 3 weeks vs untreated controls
From the text: as §2

[10] = system: DIGSA Digitaria sanguinalis; test: Post-emergence herbicidal action against harmful plants; details: one-leaf stage, assessed visually after about 3 weeks vs untreated controls
From the text: as §1

[11] = system: ECHCG Echinochloa crus-galli; test: Pre-emergence herbicidal action against harmful plants; details: scored visually after 3 weeks vs untreated controls
From the text: as §2

MATIN Matricaria inodora [12] = test: Post-emergence herbicidal action against harmful plants; details: one-leaf stage, assessed visually after about 3 weeks vs untreated controls
From the text: as §1

[13] = system: POLCO Polygonum convolvulus; test: as above; details: one-leaf stage, assessed visually after about 3 weeks vs untreated controls
From the text: as §1

[14] = system: ABUTH Abutilon theophrasti; test: as above; details: one-leaf stage, assessed visually after about 3 weeks vs untreated controls
From the text: as §1

[15] = system: ALOMY Alopecurus myosuroides; test: as above; details: one-leaf stage, assessed visually after about 3 weeks vs untreated controls
From the text: as §1

VERPE Veronica persica = test: Pre-emergence herbicidal action against harmful plants; details: scored visually after 3 weeks vs untreated controls
From the text: as §2

[16] = system: POLCO Polygonum convolvulus; test: as above; details: 80 g/ha, scored visually after 3 weeks vs untreated controls
From the text: as §2

Compound	Post-emergence action at 20 g/ha against ECHCG in % [1]	Post-emergence action at 5 g/ha against AMARE in % [3]	Post-emergence action at 20 g/ha against AMARE in % [3]	Pre-emergence action at 20 g/ha against MATIN in % (MATIN Matricaria inodora [4])	Pre-emergence action at 80 g/ha against MATIN in % (MATIN Matricaria inodora [4])	Pre-emergence action at 80 g/ha against ABUTH in % [5]	Pre-emergence action at 80 g/ha against DIGSA in % [6]	Pre-emergence action at 80 g/ha against SETVI in % (SETVI Setaria viridis [7])	Pre-emergence action at 80 g/ha against ALOMY in % [8]	Pre-emergence action at 20 g/ha against AMARE in % [9]	Pre-emergence action at 80 g/ha against AMARE in % [9]	Pre-emergence action at 80 g/ha against ECHCG in % [11]	Pre-emergence action at 20 g/ha against DIGSA in % [6]	other results
CNC(=O)c1c(C(F)(F)F)cc(F)c(C(=O)Nc2nnnn2C)c1C [Example 1-92]	80%	80%	90%	90%	90%	100%	100%	100%	80%	90%	100%	–	–	Post-emergence action at 20 g/ha against PHBPU in % (PHBPU Pharbitis purpurea): 80%; Post-emergence action at 20 g/ha against SETVI in % (SETVI Setaria viridis [2]): 80%; Pre-emergence action at 20 g/ha against SETVI in % (SETVI Setaria viridis [7]; 20 g/ha): 80%
CCN(C)C(=O)c1c(C(F)(F)F)cc(F)c(C(=O)Nc2nnnn2C)c1C [Example 1-96]	80%	80%	90%	80%	100%	100%	100%	100%	80%	–	100%	80%	–	Post-emergence action at 20 g/ha against DIGSA in % [10]: 90%
Cc1c(C(=O)Nc2nnnn2C)c(F)cc(C(F)(F)F)c1C(=O)N(C)C1CC1 [Example 1-97]	–	–	–	90%	100%	100%	100%	80%	80%	100%	100%	90%	80%	Post-emergence action at 20 g/ha against MATIN in % (MATIN Matricaria inodora [12]): 80%; Post-emergence action at 20 g/ha against POLCO in % [13]: 100%; Pre-emergence action at 20 g/ha against ABUTH in % [5]: 100%
CNC(=O)c1c(C(F)(F)F)cc(F)c(C(=O)Nc2nnnn2C)c1Cl [Example 1-180]	–	80%	90%	–	100%	100%	80%	–	–	100%	100%	–	80%	Post-emergence action at 20 g/ha against ABUTH in % [14]: 90%
CCNC(=O)c1c(C(F)(F)F)cc(F)c(C(=O)Nc2nnnn2C)c1Cl [Example 1-181]	–	90%	90%	–	100%	100%	80%	–	–	100%	100%	–	–	Post-emergence action at 20 g/ha against ABUTH in % [14]: 90%
Cn1nnnc1NC(=O)c1c(F)cc(C(F)(F)F)c(C(=O)NC2CC2)c1Cl [Example 1-182]	80%	80%	100%	–	100%	100%	100%	–	80%	100%	100%	–	90%	Post-emergence action at 20 g/ha against ALOMY in % [15]: 80%; Pre-emergence action at 80 g/ha against VERPE in % (VERPE Veronica persica): 100%; Pre-emergence action at 80 g/ha against POLCO in % [16]: 90%
CCn1nnnc1NC(=O)c1c(F)cc(C(F)(F)F)c(C(=O)N(C)C2CC2)c1C [Example 2-97]	–	–	–	90%	100%	100%	100%	–	–	100%	100%	80%	90%	Post-emergence action at 20 g/ha against MATIN in % (MATIN Matricaria inodora [12]): 80%; Pre-emergence action at 20 g/ha against VERPE in % (VERPE Veronica persica; 20 g/ha): 80%; Pre-emergence action at 80 g/ha against VERPE in % (VERPE Veronica persica): 80%; Pre-emergence action at 20 g/ha against ABUTH in % [5]: 100%
CCn1nnnc1NC(=O)c1c(F)cc(C(F)(F)F)c(C(=O)NCC(F)F)c1C [Example 2-385]	–	80%	90%	80%	90%	100%	100%	–	–	–	100%	80%	90%	Post-emergence action at 20 g/ha against SETVI in % (SETVI Setaria viridis [2]): 80%; Pre-emergence action at 80 g/ha against POLCO in % [16]: 90%
